Data as given in patent publication US11000033B2, “Ketone or oxime compound, and herbicide” (NISSAN CHEMICAL CORPORATION, priority 2014, dated 2021).

Key:
Format in all cases: in vivo
soybean = assay: Test Example 5: effect on crop by foliage application, plastic box (symbol d); details: 320 g/ha, 3 weeks after application
Procedure, shortened: (§1)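 Crop and weed seeds sown in spots in sterilized diluvial soil in plastic boxes and covered with about 1.5 cm soil. Plants raised in a greenhouse at 25° C. to 30° C. for foliar application.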

Veronica persica = assay: Test Example 5: herbicidal effect by foliage application, plastic box (symbol R); details: 320 g/ha, 3 weeks after application
Procedure, shortened: (§2)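 Visual herbicidal score, taken three weeks post-application, of seedlings sprayed on the foliage with water-diluted emulsion at a predetermined amount; plants were 14 days old, greenhouse-raised at 25° C. to 30° C.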

rice = assay: Test Example 4: effect on crop by soil treatment (symbol b)
Procedure, shortened: (§3)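 Seeds were sown in spots on sterilized diluvial soil in a plastic box and covered with about 1.5 cm of soil. Plants were then grown in a greenhouse at 25° C. to 30° C.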

Stellaria media = assay: Test Example 5: herbicidal effect by foliage application, plastic box (symbol P); details: 320 g/ha, 3 weeks after application
Procedure, shortened: as §2

Digitaria ciliaris = assay: Test Example 4: herbicidal effect by soil treatment (symbol F)
Procedure, shortened: (§4)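 Seeds were sown in sterilized diluvial soil, covered with about 1.5 cm of soil, and the soil surface was sprayed with a water-diluted emulsion of the compound at a predetermined rate. Plants grew in a greenhouse at 25° C. to 30° C.; effects were scored visually 3 weeks after application.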

Scirpus juncoides = assay: Test Example 1: herbicidal activity, application before weed generation in submerged conditions (symbol B); details: application herbicide amount 320 g/ha
Procedure, shortened: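 Flooded alluvial soil (4 cm water) was mixed-sown with the three weed species, and 2.5-leaf rice seedlings were transplanted. On sowing day, a water-diluted emulsion at a predetermined rate was applied to the water surface. After 3 weeks in a 25–30 °C greenhouse, effect was scored 0–5.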

Cyperus difformis = assay: Test Example 3: herbicidal effect by foliage application, Wagner pot (symbol E); details: application herbicide amount 320 g/ha
Procedure, shortened: (§5)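 Plants sown in submerged alluvial soil (water depth 0.1–0.5 cm) in a 25–30 °C greenhouse and grown 14 days. An emulsion of the compound diluted in water to a set herbicide amount was sprayed uniformly on foliage. Effect on each plant scored 3 weeks after application.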

Abutilon theophrasti = assay: Test Example 5: herbicidal effect by foliage application, plastic box (symbol M); details: 320 g/ha, 3 weeks after application
Procedure, shortened: as §2

Lolium multiflorum Lam. = assay: Test Example 4: herbicidal effect by soil treatment (symbol K)
Procedure, shortened: as §4

Galium spurium = assay: Test Example 5: herbicidal effect by foliage application, plastic box (symbol Q); details: 320 g/ha, 3 weeks after application
Procedure, shortened: as §2

[1] = test system: Echinochloa crus-galli var. crus-galli; assay: Test Example 4: herbicidal effect by soil treatment (symbol H)
Procedure, shortened: as §4

Leptochloa chinensis = assay: Test Example 3: herbicidal effect by foliage application, Wagner pot (symbol D); details: application herbicide amount 320 g/ha
Procedure, shortened: as §5

Setaria viridis = assay: Test Example 5: herbicidal effect by foliage application, plastic box (symbol G); details: 320 g/ha, 3 weeks after application
Procedure, shortened: as §2

Amaranthus retroflexus = assay: Test Example 4: herbicidal effect by soil treatment (symbol N)
Procedure, shortened: as §4

Alopecurus myosuroides = assay: Test Example 5: herbicidal effect by foliage application, plastic box (symbol J); details: 320 g/ha, 3 weeks after application
Procedure, shortened: as §2

rice plant = assay: Test Example 5: effect on crop by foliage application, plastic box (symbol b); details: 320 g/ha, 3 weeks after application
Procedure, shortened: as §1

beet = assay: Test Example 4: effect on crop by soil treatment (symbol f)
Procedure, shortened: as §3

Chenopodium album = assay: Test Example 5: herbicidal effect by foliage application, plastic box (symbol O); details: 320 g/ha, 3 weeks after application
Procedure, shortened: as §2

[2] = application herbicide amount 320 g/ha

| Structure (SMILES) | d: soybean, effect on crop grade (soybean) | R: Veronica persica, herbicidal effect grade (Veronica persica) | b: directly sowed rice plant, effect on crop grade (rice; [2]) | F: Digitaria ciliaris, herbicidal effect grade (Digitaria ciliaris; [2]) | Herbicidal effect grade, B: Scirpus juncoides (Scirpus juncoides) | herbicidal effect on E, grade 0-5 (Cyperus difformis) | M: Abutilon theophrasti, herbicidal effect grade (Abutilon theophrasti) | K: Lolium multiflorum Lam., herbicidal effect grade (Lolium multiflorum Lam.; [2]) | Q: Galium spurium, herbicidal effect grade (Galium spurium) | H: Echinochloa crus-galli var. crus-galli, herbicidal effect grade [1, 2] | herbicidal effect on D (Leptochloa chinensis), grade 0-5 (Leptochloa chinensis) | G: Setaria viridis, herbicidal effect grade (Setaria viridis) | N: Amaranthus retroflexus, herbicidal effect grade (Amaranthus retroflexus; [2]) | J: Alopecurus myosuroides, herbicidal effect grade (Alopecurus myosuroides) | b: directly sowed rice plant, effect on crop grade (rice plant) | f: beet, effect on crop grade (beet; [2]) | O: Chenopodium album, herbicidal effect grade (Chenopodium album) | further results |
| --- | --- | --- | --- | --- | --- | --- | --- | --- | --- | --- | --- | --- | --- | --- | --- | --- | --- | --- |
| CON=C(C)CC1CC(O)=C(c2c(C)cc(C#CCO)cc2C)C1=O (mixture of isomers) [6-025] | 0 (Herbicidal ratio of 5% or lower (almost no effect)) | 0 (Herbicidal ratio of 5% or lower (almost no effect)) | 5 (Herbicidal ratio of 90% or more (almost completely withered)) | 3 (Herbicidal ratio of 40% or higher and lower than 70%) | 0 (Herbicidal ratio of 5% or lower (almost no effect)) | 4 (Herbicidal ratio of 70% or higher and lower than 90%) | 0 (Herbicidal ratio of 5% or lower (almost no effect)) | 5 (Herbicidal ratio of 90% or more (almost completely withered)) | 0 (Herbicidal ratio of 5% or lower (almost no effect)) | 0 (Herbicidal ratio of 5% or lower (almost no effect)) | 5 (Herbicidal ratio of 90% or more (almost completely withered)) | 5 (Herbicidal ratio of 90% or more (almost completely withered)) | 0 (Herbicidal ratio of 5% or lower (almost no effect)) | 5 (Herbicidal ratio of 90% or more (almost completely withered)) | 5 (Herbicidal ratio of 90% or more (almost completely withered)) | 0 (Herbicidal ratio of 5% or lower (almost no effect)) | 0 (Herbicidal ratio of 5% or lower (almost no effect)) | P: Stellaria media, herbicidal effect grade (Stellaria media): 0 (Herbicidal ratio of 5% or lower (almost no effect)) |
| CON=C(C)CC1CC(OCC(=O)OC)=C(c2c(C)cc(C)cc2C)C1=O (centres unmarked) [1-012] | 0 (Herbicidal ratio of 5% or lower (almost no effect)) | 0 (Herbicidal ratio of 5% or lower (almost no effect)) |  |  | 0 (Herbicidal ratio of 5% or lower (almost no effect)) | 0 (Herbicidal ratio of 5% or lower (almost no effect)) | 0 (Herbicidal ratio of 5% or lower (almost no effect)) |  | 0 (Herbicidal ratio of 5% or lower (almost no effect)) |  | 0 (Herbicidal ratio of 5% or lower (almost no effect)) | 0 (Herbicidal ratio of 5% or lower (almost no effect)) |  | 0 (Herbicidal ratio of 5% or lower (almost no effect)) | 0 (Herbicidal ratio of 5% or lower (almost no effect)) |  | 0 (Herbicidal ratio of 5% or lower (almost no effect)) | b (directly sowed rice plant) effect on crop grade (rice; [2]): 0 (Herbicidal ratio of 5% or lower (almost no effect)); F (Digitaria ciliaris) herbicidal effect grade (Digitaria ciliaris; [2]): 0 (Herbicidal ratio of 5% or lower (almost no effect)); K (Lolium multiflorum Lam.) herbicidal effect grade (Lolium multiflorum Lam.; [2]): 0 (Herbicidal ratio of 5% or lower (almost no effect)); H (Echinochloa crus-galli var. crus-galli) herbicidal effect grade [1, 2]: 0 (Herbicidal ratio of 5% or lower (almost no effect)); N (Amaranthus retroflexus) herbicidal effect grade (Amaranthus retroflexus; [2]): 0 (Herbicidal ratio of 5% or lower (almost no effect)); f (beet) effect on crop grade (beet; [2]): 0 (Herbicidal ratio of 5% or lower (almost no effect)) |
| CON=C(C)CC1CC(OS(=O)(=O)C2CC2)=C(c2c(C)cc(C)cc2C)C1=O (centres unmarked) [1-143] |  |  |  |  | 4 (Herbicidal ratio of 70% or higher and lower than 90%) |  |  |  |  |  | 4 (Herbicidal ratio of 70% or higher and lower than 90%) |  |  |  |  |  |  | d: soybean, effect on crop (criteria 0-5) (soybean): 1 (Herbicidal ratio of 5% or higher and lower than 20%); R: Veronica persica, herbicidal effect (criteria 0-5) (Veronica persica): 0 (Herbicidal ratio of 5% or lower (almost no effect)); b: directly sowed rice plant, effect grade on crop (rice; 320 g/ha): 0 (Herbicidal ratio of 5% or lower (almost no effect)); P: Stellaria media, herbicidal effect (criteria 0-5) (Stellaria media): 0 (Herbicidal ratio of 5% or lower (almost no effect)); F: Digitaria ciliaris, herbicidal effect grade (Digitaria ciliaris; 320 g/ha): 1 (Herbicidal ratio of 5% or higher and lower than 20%); M: Abutilon theophrasti, herbicidal effect (criteria 0-5) (Abutilon theophrasti): 1 (Herbicidal ratio of 5% or higher and lower than 20%); K: Lolium multiflorum Lam., herbicidal effect grade (Lolium multiflorum Lam.; 320 g/ha): 4 (Herbicidal ratio of 70% or higher and lower than 90%); Q: Galium spurium, herbicidal effect (criteria 0-5) (Galium spurium): 0 (Herbicidal ratio of 5% or lower (almost no effect)); H: Echinochloa crus-galli var. crus-galli, herbicidal effect grade ([1]; 320 g/ha): 0 (Herbicidal ratio of 5% or lower (almost no effect)); G: Setaria viridis, herbicidal effect (criteria 0-5) (Setaria viridis): 5 (Herbicidal ratio of 90% or more (almost completely withered)); N: Amaranthus retroflexus, herbicidal effect grade (Amaranthus retroflexus; 320 g/ha): 0 (Herbicidal ratio of 5% or lower (almost no effect)); J: Alopecurus myosuroides, herbicidal effect (criteria 0-5) (Alopecurus myosuroides): 5 (Herbicidal ratio of 90% or more (almost completely withered)); b: directly sowed rice plant, effect on crop (criteria 0-5) (rice plant): 2 (Herbicidal ratio of 20% or higher and lower than 40%); f: beet, effect grade on crop (beet; 320 g/ha): 0 (Herbicidal ratio of 5% or lower (almost no effect)); O: Chenopodium album, herbicidal effect (criteria 0-5) (Chenopodium album): 0 (Herbicidal ratio of 5% or lower (almost no effect)) |
| CCc1cc(Br)cc(C)c1C1=C(O)CC(CC(C)=NOC)C1=O (centres unmarked) [6-001] | 0 (Herbicidal ratio of 5% or lower (almost no effect)) | 0 (Herbicidal ratio of 5% or lower (almost no effect)) | 5 (Herbicidal ratio of 90% or more (almost completely withered)) | 5 (Herbicidal ratio of 90% or more (almost completely withered)) | 0 (Herbicidal ratio of 5% or lower (almost no effect)) | 0 (Herbicidal ratio of 5% or lower (almost no effect)) | 0 (Herbicidal ratio of 5% or lower (almost no effect)) | 5 (Herbicidal ratio of 90% or more (almost completely withered)) | 0 (Herbicidal ratio of 5% or lower (almost no effect)) | 5 (Herbicidal ratio of 90% or more (almost completely withered)) | 5 (Herbicidal ratio of 90% or more (almost completely withered)) | 5 (Herbicidal ratio of 90% or more (almost completely withered)) | 0 (Herbicidal ratio of 5% or lower (almost no effect)) | 5 (Herbicidal ratio of 90% or more (almost completely withered)) | 5 (Herbicidal ratio of 90% or more (almost completely withered)) | 0 (Herbicidal ratio of 5% or lower (almost no effect)) | 0 (Herbicidal ratio of 5% or lower (almost no effect)) |  |
| CCc1cc(Br)cc(C)c1C1=C(O)CC(C(C(=O)OC)C(C)=NOC)C1=O (centres unmarked) [6-002] | 0 (Herbicidal ratio of 5% or lower (almost no effect)) | 0 (Herbicidal ratio of 5% or lower (almost no effect)) | 5 (Herbicidal ratio of 90% or more (almost completely withered)) | 2 (Herbicidal ratio of 20% or higher and lower than 40%) | 0 (Herbicidal ratio of 5% or lower (almost no effect)) | 0 (Herbicidal ratio of 5% or lower (almost no effect)) | 1 (Herbicidal ratio of 5% or higher and lower than 20%) | 5 (Herbicidal ratio of 90% or more (almost completely withered)) | 0 (Herbicidal ratio of 5% or lower (almost no effect)) | 2 (Herbicidal ratio of 20% or higher and lower than 40%) | 4 (Herbicidal ratio of 70% or higher and lower than 90%) | 5 (Herbicidal ratio of 90% or more (almost completely withered)) | 0 (Herbicidal ratio of 5% or lower (almost no effect)) | 5 (Herbicidal ratio of 90% or more (almost completely withered)) | 5 (Herbicidal ratio of 90% or more (almost completely withered)) | 0 (Herbicidal ratio of 5% or lower (almost no effect)) | 0 (Herbicidal ratio of 5% or lower (almost no effect)) |  |
